# Measured values: ChEMBL document CHEMBL1122874, “Orally absorbable cephalosporin antibiotics. 1. Structure-activity relationships of benzothienyl- and naphthylglycine derivatives of 7-aminodeacetoxycephalosporanic acid” (1985)
# Columns and labels:
# Streptococcus pneumoniae [1] = experiment: Antibacterial activity against Streptococcus pneumoniae Park.
# [2] = test system: Staphylococcus epidermidis; experiment: Antibacterial activity against Staph. epidermis EP11; assay type: functional
# Streptococcus = experiment: Antibacterial activity against Streptococcus group D X66.; assay type: functional
# Staphylococcus aureus [3] = experiment: Antibacterial activity against methicillin resistant Staphylococcus aureus S13E.; assay type: functional
# Haemophilus influenzae [4] = experiment: Antibacterial activity against sensitive Haemophilus influenzae C.L.; assay type: functional
# Staphylococcus aureus [5] = experiment: Antibacterial activity against penicillin G sensitive Staphylococcus aureus X1.1.; assay type: functional
# Haemophilus influenzae [6] = experiment: Antibacterial activity against resistant Haemophilus influenzae 76.; assay type: functional
# Streptococcus pneumoniae [7] = experiment: Antibacterial activity against Streptococcus pneumoniae Park.; assay type: functional
# Streptococcus pyogenes [8] = experiment: Antibacterial activity against Streptococcus pyogenes C203.; assay type: functional
# Staphylococcus aureus [9] = experiment: Antibacterial activity against methicillin resistant Staphylococcus aureus X400; assay type: functional
# Staphylococcus aureus [10] = experiment: Antibacterial activity against penicillin G sensitive Staphylococcus aureus V41; assay type: functional
# Staphylococcus aureus [11] = experiment: Antibacterial activity in mice infected with Staphylococcus aureus 3055 by oral administration; assay type: functional
# Streptococcus pneumoniae [12] = experiment: Antibacterial activity in mice infected with Streptococcus pneumoniae Park1 by subcutaneous administration; assay type: functional
# Staphylococcus aureus [13] = experiment: Antibacterial activity in mice infected with Staphylococcus aureus 3055 by subcutaneous administration; assay type: functional
# Streptococcus pneumoniae [14] = experiment: Antibacterial activity in mice infected with Streptococcus pneumoniae Park1; assay type: functional
# Streptococcus pyogenes [15] = experiment: Antibacterial activity in mice infected with Streptococcus pyogenes C203; assay type: functional
# Streptococcus pyogenes [16] = experiment: Antibacterial activity in mice infected with Streptococcus pyogenes C203 by oral administration; assay type: functional
# Streptococcus pneumoniae [17] = experiment: Antibacterial activity in mice infected with Streptococcus pneumoniae Park1 by oral administration; assay type: functional
# Streptococcus pyogenes [18] = experiment: Antibacterial activity in mice infected with Streptococcus pyogenes C203 by subcutaneous administration; assay type: functional
# Staphylococcus aureus [19] = experiment: Antibacterial activity in mice infected with Staphylococcus aureus 3055; assay type: functional
# Staphylococcus aureus [20] = experiment: Antibacterial activity in mice infected with Staphylococcus aureus 3055 after oral administration; assay type: functional
# Streptococcus pyogenes [21] = experiment: Antibacterial activity in mice infected with Streptococcus pyogenes C203 after subcutaneous administration; assay type: functional
# Staphylococcus aureus [22] = experiment: Antibacterial activity in mice infected with Staphylococcus aureus 3055 after subcutaneous administration; assay type: functional
# Streptococcus pneumoniae [23] = experiment: Antibacterial activity in mice infected with Streptococcus pneumoniae Park1 after oral administration; assay type: functional
# Streptococcus pneumoniae [24] = experiment: Antibacterial activity in mice infected with Streptococcus pneumoniae Park1 after subcutaneous administration; assay type: functional
# Streptococcus pyogenes [25] = experiment: Antibacterial activity in mice infected with Streptococcus pyogenes C203 after oral administration; assay type: functional
SMILES,MIC (Streptococcus pneumoniae [1]) [µg/mL],MIC [2] [µg/mL],MIC (Streptococcus) [µg/mL],MIC (Staphylococcus aureus [3]) [µg/mL],MIC (Haemophilus influenzae [4]) [µg/mL],MIC (Staphylococcus aureus [5]) [µg/mL],MIC (Haemophilus influenzae [6]) [µg/mL],MIC (Streptococcus pyogenes [8]) [µg/mL],MIC (Staphylococcus aureus [9]) [µg/mL],MIC (Staphylococcus aureus [10]) [µg/mL],other results
CC1=C(C(=O)O)N2C(=O)C(NC(=O)[C@H](N)c3csc4cc(F)ccc34)C2SC1 (stereo partly drawn),0.5,4,128,8,,,,,,,
CC1=C(C(=O)O)N2C(=O)C(NC(=O)[C@H](N)c3csc4cccc(F)c34)C2SC1 (stereo partly drawn),,,,,16,4,4,1,,,MIC (Streptococcus pneumoniae [7]): 4 µg/mL
CC1=C(C(=O)O)N2C(=O)C(NC(=O)[C@H](N)c3csc4c(F)cccc34)C2SC1 (stereo partly drawn),0.5,4,,8,4,0.5,0.5,0.125,128,16,
CC1=C(C(=O)O)N2C(=O)C(NC(=O)[C@H](N)c3csc4cc(Cl)ccc34)C2SC1 (stereo partly drawn),1,4,128,8,8,1,1,0.5,16,8,
CC1=C(C(=O)O)N2C(=O)C(NC(=O)[C@H](N)c3ccc4cc(Cl)ccc4c3)C2SC1 (stereo partly drawn),0.25,4,64,8,32,0.25,2,0.06,64,8,
COc1ccc2c([C@@H](N)C(=O)NC3C(=O)N4C(C(=O)O)=C(C)CSC34)csc2c1 (stereo partly drawn),0.125,4,,4,32,1,4,0.125,16,8,
CC1=C(C(=O)O)N2C(=O)C(NC(=O)[C@H](N)c3ccc4cccc(Cl)c4c3)C2SC1 (stereo partly drawn),0.25,1,16,1,8,0.5,0.5,0.25,4,1,
CC1=C(C(=O)O)N2C(=O)C(NC(=O)[C@H](N)c3ccc4ccccc4c3)C2SC1 (stereo partly drawn),0.5,4,64,8,8,0.5,2,0.125,64,8,ED50 (Staphylococcus aureus [11]): 0.41 mg/kg; ED50 (Streptococcus pneumoniae [12]): 17.6 mg/kg; ED50 (Staphylococcus aureus [13]): 0.07 mg/kg; MIC (Streptococcus pneumoniae [14]): 1 µg/mL; MIC (Streptococcus pyogenes [15]): 0.125 µg/mL; ED50 (Streptococcus pyogenes [16]): 3.4 mg/kg; ED50 (Streptococcus pneumoniae [17]): > 25 mg/kg; ED50 (Streptococcus pyogenes [18]): 2 mg/kg; MIC (Staphylococcus aureus [19]): 0.5 µg/mL
CC1=C(C(=O)O)N2C(=O)C(NC(=O)[C@@H](N)c3cc4c(Cl)cccc4s3)C2SC1 (stereo partly drawn),0.5,2,64,4,32,0.5,1,0.125,16,4,
CC1=C(C(=O)O)N2C(=O)C(NC(=O)[C@H](N)c3cccc4ccc(Cl)cc34)C2SC1 (stereo partly drawn),,2,,4,16,1,4,0.25,16,4,
CC1=C(C(=O)O)N2C(=O)C(NC(=O)[C@@H](N)c3cc4c(s3)CCCC4)C2SC1 (stereo partly drawn),0.25,2,64,8,16,0.25,4,0.06,,16,
CC1=C(C(=O)O)N2C(=O)C(NC(=O)[C@H](N)c3cccc4ccccc34)C2SC1 (stereo partly drawn),2,8,128,32,8,1,2,2,64,32,
CC1=C(C(=O)O)N2C(=O)C(NC(=O)[C@H](N)c3csc4cc(Cl)c(Cl)cc34)C2SC1 (stereo partly drawn),0.5,4,,4,4,1,1,0.25,64,8,
CC1=C(C(=O)O)N2C(=O)C(NC(=O)[C@H](N)c3csc4ccc(Cl)cc34)C2SC1 (stereo partly drawn),0.25,4,64,2,,0.5,0.5,0.125,16,4,
COc1ccc2cc([C@@H](N)C(=O)NC3C(=O)N4C(C(=O)O)=C(C)CSC34)ccc2c1 (stereo partly drawn),0.125,4,,16,16,0.25,4,0.125,64,16,
CC1=C(C(=O)O)N2C(=O)C(NC(=O)[C@H](N)c3csc4ccc(F)cc34)C2SC1 (stereo partly drawn),1,8,128,8,4,1,4,0.25,64,8,
CC1=C(C(=O)O)N2C(=O)C(NC(=O)[C@@H](N)c3cc4cc(Cl)ccc4s3)C2SC1 (stereo partly drawn),0.25,2,,16,64,0.25,4,0.125,,8,
CC1=C(C(=O)O)N2C(=O)C(NC(=O)[C@@H](N)c3cc4ccccc4s3)C2SC1 (stereo partly drawn),2,2,,,32,0.5,1,0.5,,,ED50 (Staphylococcus aureus [11]): 0.13 mg/kg; ED50 (Streptococcus pneumoniae [12]): 15 mg/kg; ED50 (Staphylococcus aureus [13]): 0.13 mg/kg; MIC (Streptococcus pneumoniae [14]): 1 µg/mL; MIC (Streptococcus pyogenes [15]): 0.25 µg/mL; ED50 (Streptococcus pyogenes [16]): 2.3 mg/kg; ED50 (Streptococcus pneumoniae [17]): 31 mg/kg; ED50 (Streptococcus pyogenes [18]): 2.6 mg/kg; MIC (Staphylococcus aureus [19]): 0.25 µg/mL
CC1=C(C(=O)O)N2C(=O)C(NC(=O)[C@@H](N)c3csc4ccccc34)C2SC1 (stereo partly drawn),0.5,,128,,2,1,0.5,0.5,,,ED50 (Staphylococcus aureus [20]): 0.6 mg/kg; MIC (Streptococcus pneumoniae [14]): 1 µg/mL; ED50 (Streptococcus pyogenes [21]): 2.3 mg/kg; MIC (Streptococcus pyogenes [15]): 0.5 µg/mL; ED50 (Staphylococcus aureus [22]): 0.4 mg/kg; ED50 (Streptococcus pneumoniae [23]): 16 mg/kg; ED50 (Streptococcus pneumoniae [24]): 18 mg/kg; ED50 (Streptococcus pyogenes [25]): 1.7 mg/kg; MIC (Staphylococcus aureus [19]): 1 µg/mL
N[C@@H](C(=O)N[C@@H]1C(=O)N2C(C(=O)O)=C(Cl)CS[C@H]12)c1ccccc1 [CEFACLOR ANHYDROUS],,,,,,,,,,,ED50 (Staphylococcus aureus [11]): 0.13 mg/kg; ED50 (Streptococcus pneumoniae [12]): 11.5 mg/kg; ED50 (Staphylococcus aureus [13]): 0.03 mg/kg; MIC (Streptococcus pneumoniae [14]): 2 µg/mL; ED50 (Streptococcus pyogenes [21]): 1.4 mg/kg; MIC (Streptococcus pyogenes [15]): 0.25 µg/mL; ED50 (Streptococcus pyogenes [25]): 0.8 mg/kg; ED50 (Streptococcus pneumoniae [17]): 10.7 mg/kg; MIC (Staphylococcus aureus [19]): 1 µg/mL
CC1=C(C(=O)O)N2C(=O)[C@@H](NC(=O)[C@H](N)c3ccccc3)[C@H]2SC1 [CEPHALEXIN ANHYDROUS],1,,,,,4,,0.5,,,ED50 (Staphylococcus aureus [11]): 0.34 mg/kg; ED50 (Streptococcus pneumoniae [12]): 23 mg/kg; ED50 (Staphylococcus aureus [13]): 0.2 mg/kg; ED50 (Streptococcus pyogenes [21]): 2.9 mg/kg; MIC (Streptococcus pyogenes [15]): 0.5 µg/mL; ED50 (Streptococcus pyogenes [25]): 3.3 mg/kg; ED50 (Streptococcus pneumoniae [17]): 51 mg/kg; MIC (Staphylococcus aureus [19]): 1 µg/mL
